Measurements taken from paper PMC4113009, “Dihydroisoxazole inhibitors of Anopheles gambiae seminal transglutaminase AgTG3” (Malaria Journal, 2014).

What was measured:
human caspase-1 = molecular target: T1, human caspase-1 (Homo sapiens, UniProt P29466); test: Cysteine protease inhibition assay, caspase-1 (Ac-YVAD-pNA); format: biochemical; settings: 3 at 100 μM, compared to a DMSO control, chromogenic assay
T1 construct: purchased Abcam
T1 sequence (P29466 120-297 limits assumed): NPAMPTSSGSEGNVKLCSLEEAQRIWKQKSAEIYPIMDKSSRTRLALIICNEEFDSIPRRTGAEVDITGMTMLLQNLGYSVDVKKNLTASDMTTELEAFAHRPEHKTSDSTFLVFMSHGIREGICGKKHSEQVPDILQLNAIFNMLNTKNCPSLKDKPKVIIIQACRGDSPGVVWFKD
T1 sequence (P29466 317-404 limits assumed): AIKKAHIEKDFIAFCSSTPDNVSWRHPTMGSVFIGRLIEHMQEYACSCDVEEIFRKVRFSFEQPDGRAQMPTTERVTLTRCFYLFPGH
Procedure: The activity of caspase-1 was determined by use of chromogenic substrate Ac-YVAD-pNA (Enzo Life Sciences, NY, USA). The assay was performed by adding 45 μL of 1 Unit caspase-1 (Abcam, MA, USA) and 5 μL of Ac-YVAD-pNA (final concentration, 5 μM) to 50 μL assay buffer (50 mM HEPES pH 7.4, 10 mM DTT, 1 mM EDTA, 0.1% CHAPS, 20% glycerol). Substrate cleavage after 1 h incubation at 37°C was measured by […] absorbance at 400 nm in a benchtop UV/Vis spectrophotometer (UV1800, Shimadzu, Kyoto, Japan).
(§1) Transglutaminases and cysteine proteases have a similar catalytic mechanism involving an active site cysteine and formation of a thioacyl intermediate. […] To test this hypothesis, the inhibition of two cysteine proteases, human caspase-1 and recombinant tobacco etch virus (TEV) protease by 3 at 100 μM were tested using a chromogenic and SDS-PAGE assay, respectively (Figure 9). […] Neither human caspase-1 nor TEV are endogenous proteins in A. gambiae, which may well contain other endogenous targets of 1–3, not least the two other transglutaminases in the A. gambiae genome.

[1] = molecular target: T2, recombinant tobacco etch virus (TEV) protease (Tobacco etch virus, UniProt P04517); test: Cysteine protease inhibition assay, TEV protease (GST-gp78 cleavage, SDS-PAGE); format: biochemical; settings: 3 at 100 μM, compared to a DMSO control
T2 construct: recombinant tobacco etch virus (TEV) protease
T2 sequence (P04517 2038-2279): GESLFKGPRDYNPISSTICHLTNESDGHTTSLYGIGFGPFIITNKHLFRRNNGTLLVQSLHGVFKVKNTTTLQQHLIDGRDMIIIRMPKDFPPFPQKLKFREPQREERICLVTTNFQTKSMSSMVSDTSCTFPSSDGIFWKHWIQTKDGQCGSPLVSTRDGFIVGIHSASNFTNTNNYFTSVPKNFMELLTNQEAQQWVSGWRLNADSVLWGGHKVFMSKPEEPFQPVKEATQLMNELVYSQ
Procedure: The activity of recombinant tobacco etch virus (TEV) protease was determined by cleavage of a fusion protein containing a TEV cleavage site between GST and a 17 kDa fragment of human gp78. TEV and GST-gp78 were incubated at 37°C for 10 min at a substrate:enzyme mass ratio of 10:1. The reaction was stopped by adding 3× loading buffer (150 mM Tris–HCl pH 6.8, 300 mM DTT, 6% (w/v) SDS, 0.06% (w/v) bromophenol blue, 30% (v/v) glycerol). Samples were heated at 95°C for 3 min and separated by 4–20% gradient SDS-PAGE.
as §1

[2] = system: Anopheles gambiae G3 strain mosquitoes; test: Anopheles gambiae laboratory mating assay (mating plug transfer); format: in vivo
Procedure: Anopheles gambiae G3 strain mosquitoes from a laboratory colony were reared using standard conditions (26–28°C, 65–80% relative humidity, 12 h/12 h Light/Darkness (L:D) photoperiod). Mosquitoes were sexed as pupae and adult males and females were allowed to emerge in separate cages to ensure their status as virgins. Three-day-old virgin males were injected with 138 nl of 100 μM of inhibitor diluted in 5% DMSO, or with 138 nl of a 5% DMSO solution as a control. Mating experiments were performed four days after eclosion as described previously and couples were captured in copula. RNAi experiments were performed as previously described. Mated females were dissected within two hours of mating to determine the presence of the mating plug in their atrium.
Finally, A. gambiae laboratory mating assays were performed to test if the DHI inhibitors identified in the pilot screen could inhibit male transfer of the mating plug. Compound 3, 100 μM in DMSO, was administered to male mosquitoes by intrathoracic injection. Injected males were mated with virgin females, and their ability to transfer a mating plug to females was assessed (Table 1). […] Thus, injection of males with AgTG3 inhibitor 3 is at least as effective as injection of dsRNA to inhibit mating plug formation in A. gambiae males.

O=C(N[C@@H](Cc1c[nH]c2ccccc12)C(=O)NC[C@@H]1CC(Br)=NO1)OCc1cnc2ccccc2c1
Inhibition of caspase-1 (human caspase-1): no inhibition of the protease | Inhibition of TEV protease [1]: no inhibition of the protease | Reduction in transfer of the mating plug ([2]; intrathoracic injection of males): 15% | Mating plug transferred (number of females) ([2]; males injected intrathoracically (3: 138 nl of 100 μM; dsRNA as ref 39), N 75 (3), 77 (dsAgTG3)): 64 | No plug transferred (number of females) ([2]; males injected intrathoracically (3: 138 nl of 100 μM; dsRNA as ref 39), N 75 (3), 77 (dsAgTG3), three independent experiments): 11 | Females that failed to receive a mating plug ([2]; males injected intrathoracically, DMSO control 3%, dsLacZ control 2%): 15% | Ill effect of injection on males ([2]; males injected with 3): no obvious ill effect from wounding
